Experimental data as given in ChEMBL document CHEMBL1201862, “PubChem BioAssay data set” (2004).
Blank lines part the entries; values can stand above or below the compound they belong to. Activity calls are given as the source filed them.

What was measured:
[1] = molecular target: T1, Corticotropin-releasing factor receptor 2/Corticotropin-releasing factor-binding protein (Homo sapiens, UniProt P24387+Q13324); assay: Dose Response confirmation of uHTS hits for small molecule antagonists of the CRF-binding protein and CRF-R2 receptor complex.; assay type: functional; conditions: read-out: IC50_Mean
T1 sequence (Q13324 whole entry): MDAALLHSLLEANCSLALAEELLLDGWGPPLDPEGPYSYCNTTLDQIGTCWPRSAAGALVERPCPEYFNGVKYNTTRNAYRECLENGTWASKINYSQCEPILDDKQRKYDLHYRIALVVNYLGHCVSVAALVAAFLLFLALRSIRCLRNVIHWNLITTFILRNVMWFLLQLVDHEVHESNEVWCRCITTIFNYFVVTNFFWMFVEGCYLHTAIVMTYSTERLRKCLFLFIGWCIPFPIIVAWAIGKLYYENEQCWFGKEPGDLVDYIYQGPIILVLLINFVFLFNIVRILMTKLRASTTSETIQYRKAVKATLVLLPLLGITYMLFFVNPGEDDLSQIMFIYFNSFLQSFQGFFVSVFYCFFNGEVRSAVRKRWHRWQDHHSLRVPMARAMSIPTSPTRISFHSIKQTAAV
T1 sequence (P24387 whole entry): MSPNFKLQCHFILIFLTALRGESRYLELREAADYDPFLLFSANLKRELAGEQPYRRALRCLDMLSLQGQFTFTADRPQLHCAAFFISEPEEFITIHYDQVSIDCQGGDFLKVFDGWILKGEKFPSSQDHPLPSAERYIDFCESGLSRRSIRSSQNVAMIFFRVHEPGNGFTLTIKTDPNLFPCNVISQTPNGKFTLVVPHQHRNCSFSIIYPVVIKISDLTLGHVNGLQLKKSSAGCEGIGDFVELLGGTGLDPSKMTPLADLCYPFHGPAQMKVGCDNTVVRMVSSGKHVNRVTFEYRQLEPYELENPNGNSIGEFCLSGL

H9c2 = assay: cells; assay type: functional, cell-based; conditions: Rattus norvegicus, H9c2, Myocardium;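 note: confirmatory concentration-response retest of ultra-high-throughput screening hits for modulation of myocardial damage; cell death induced by hydrogen peroxide oxidative stress; compound pretreatment for 60 min then peroxide exposure for 2 h; potency is for protecting the cells against peroxide damage rather than for killing them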
[2] = molecular target: T1, Corticotropin-releasing factor receptor 2/Corticotropin-releasing factor-binding protein; assay: activators of CRF receptor 2 with binding protein – uHTS hits, confirmation (AID 602473); assay type: functional; conditions: read-out: EC50_Mean
[3] = intracellular Trypanosoma cruzi inhibitors in host cells – cell-based, plate reader, cherry-pick samples, set 3, dose response (AID 651818); assay type: functional;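 note: compounds incubated with infected cells for about four days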
[4] = P. falciparum Dd2 growth inhibitors, dose response, SYBR Green, cherry-picked samples (AID 1159567); assay type: functional, cell-based
[5] = Dd2 malaria parasite growth inhibition potency – SYBR Green, dry powder samples, dose response (AID 1159566); assay type: functional, cell-based;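 note: potency for growth inhibition with lower SYBR green DNA signal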
[6] = growth inhibition of yeast DHODH-expressing 3D7 parasites – SYBR Green, dry powder samples, dose response (AID 1159570); assay type: functional, cell-based;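 note: parasite growth measured after 72 hours of compound exposure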
[7] = growth inhibition of PfATP4-mutant resistant parasites – NITD609-resistant line, SYBR Green, dry powder, dose response (AID 1159571); assay type: functional, cell-based;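 note: parasites synchronized at ring stage by sorbitol before testing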
[8] = off-target signal loss in HeLa-CEM21 co-culture – HeLa F-luc CTL cells, cherry-picked, counter-screen for HIV-1 Env fusion inhibitor project, dose response (AID 652040); assay type: functional, cell-based;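 note: potency for signal decrease marking cytotoxic or nonspecific inhibition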
[9] = HIV-1 AD8 envelope cell-cell fusion blockers – cherry-pick, dose response (AID 652062); assay type: functional, cell-based;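 note: luciferase signal from cell-cell fusion driven by HIV-1 clade B AD8 Env; potency is for inhibitors of fusion seen as a drop in luminescence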
[10] = molecular target: T2, Ubiquitin-conjugating enzyme E2 N (Homo sapiens, UniProt P61088); assay type: functional;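 note: Dose-response confirmation in a TR-FRET assay detecting UBC13-driven polyubiquitin chain formation, inhibition measured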
T2 sequence (P61088 whole entry): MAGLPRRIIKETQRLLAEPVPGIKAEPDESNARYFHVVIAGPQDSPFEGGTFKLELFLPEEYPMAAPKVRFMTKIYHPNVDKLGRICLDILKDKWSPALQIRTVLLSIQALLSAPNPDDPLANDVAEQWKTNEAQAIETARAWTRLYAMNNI

[11] = molecular target: T3, DNA repair protein RAD52 homolog (Homo sapiens, UniProt P43351); assay type: functional, biochemical
T3 sequence (P43351 whole entry): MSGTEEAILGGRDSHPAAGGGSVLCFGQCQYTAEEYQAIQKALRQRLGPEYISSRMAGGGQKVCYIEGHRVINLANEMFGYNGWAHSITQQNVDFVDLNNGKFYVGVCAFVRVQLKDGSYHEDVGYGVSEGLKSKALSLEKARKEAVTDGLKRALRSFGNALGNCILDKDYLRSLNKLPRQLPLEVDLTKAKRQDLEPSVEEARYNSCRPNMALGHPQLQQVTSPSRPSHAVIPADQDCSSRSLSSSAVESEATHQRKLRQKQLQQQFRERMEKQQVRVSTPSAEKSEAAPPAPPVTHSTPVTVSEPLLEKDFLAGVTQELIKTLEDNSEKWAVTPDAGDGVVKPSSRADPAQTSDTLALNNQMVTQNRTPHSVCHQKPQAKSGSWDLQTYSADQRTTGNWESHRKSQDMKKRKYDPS

[12] = molecular target: T4, RNA-binding protein pos-1 (Caenorhabditis elegans, UniProt G5EF15); assay: disruptors of C. elegans POS-1 RNA interaction – biochemical, fluorescence polarization, dose response (AID 1964);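 note: purified POS-1 fused to maltose binding protein made in E. coli; potency of compounds blocking POS-1 binding to fluorescent RNA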
T4 sequence (G5EF15 whole entry): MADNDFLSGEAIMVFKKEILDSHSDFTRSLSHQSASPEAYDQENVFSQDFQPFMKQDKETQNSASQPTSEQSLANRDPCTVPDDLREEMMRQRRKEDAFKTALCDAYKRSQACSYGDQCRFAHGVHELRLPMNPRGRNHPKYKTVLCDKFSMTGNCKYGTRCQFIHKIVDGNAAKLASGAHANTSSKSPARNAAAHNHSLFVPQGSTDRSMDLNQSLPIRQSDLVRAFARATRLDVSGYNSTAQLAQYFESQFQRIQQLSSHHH

[13] = molecular target: T5, Zinc finger protein mex-5 (Caenorhabditis elegans, UniProt Q9XUB2); assay: potency of MEX-5 RNA-binding blockers – biochemical, C. elegans, fluorescence polarization, dose response (AID 1960)
T5 sequence (Q9XUB2 whole entry): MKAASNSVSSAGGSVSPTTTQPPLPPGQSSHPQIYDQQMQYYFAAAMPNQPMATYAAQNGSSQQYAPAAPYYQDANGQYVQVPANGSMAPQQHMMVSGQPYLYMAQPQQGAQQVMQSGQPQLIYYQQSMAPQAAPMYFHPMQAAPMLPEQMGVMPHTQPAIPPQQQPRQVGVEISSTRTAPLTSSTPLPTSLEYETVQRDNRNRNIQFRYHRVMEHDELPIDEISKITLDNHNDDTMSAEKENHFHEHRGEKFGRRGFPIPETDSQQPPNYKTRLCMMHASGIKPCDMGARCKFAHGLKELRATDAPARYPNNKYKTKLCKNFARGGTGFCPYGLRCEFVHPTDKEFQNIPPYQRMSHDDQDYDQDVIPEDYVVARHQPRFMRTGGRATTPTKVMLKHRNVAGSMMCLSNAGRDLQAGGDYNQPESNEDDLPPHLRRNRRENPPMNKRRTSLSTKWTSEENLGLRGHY

[14] = blockers of HIV-1 ZM109 envelope-driven cell-cell fusion – HeLa effector, CEM target cells, luciferase, cherry-pick, dose response (AID 652058); assay type: functional, cell-based;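 note: luciferase signal from HIV-1 Env mediated cell-cell fusion of effector and target cells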
[15] = blockers of HIV-1 envelope-mediated cell-cell fusion – cherry-pick, dose response (AID 652057); assay type: functional, cell-based

SMILES: O=C(N/N=C/c1ccccn1)c1cccs1
IC50 [1]: > 47.1 µM (inactive) | IC50 (H9c2): > 79 µM (inactive) | EC50 [2]: > 53 µM (inactive)

SMILES: C[C@H](CO)N1C[C@H](C)[C@H](CN(C)C(=O)Nc2ccc(F)cc2)Oc2c(NC(=O)c3ccncc3)cccc2C1=O
AC50 [3]: 2.08 µM (active)

SMILES: C[C@@H]1CN([C@@H](C)CO)C(=O)c2cccc(NS(=O)(=O)c3ccc(Cl)cc3)c2O[C@H]1CN(C)Cc1ccc(C(=O)Nc2ccccc2N)cc1
AC50 [3]: 2.53 µM (active)

SMILES: O=C(Nc1ccccc1)N1CCCCN2[C@H](CO)[C@H](c3ccc(C#Cc4cccnc4)cc3)[C@@H]2C1
AC50 [4]: 0.676 µM (active) | AC50 [5]: 0.165 µM (active) | AC50 [6]: 0.15 µM (active) | AC50 [7]: 0.157 µM (active)

SMILES: OCC[C@@H]1C[C@@H](O)[C@H](O)[C@]2(OCc3ccccc32)O1
AC50 [8]: 28.2 µM (active) | AC50 [9]: 27.2 µM (active)

SMILES: C[C@H](CO)N1C[C@H](C)[C@@H](CN(C)C(=O)Nc2cccc3ccccc23)Oc2ccc(NC(=O)Cc3cn(C)c4ccccc34)cc2C1=O
AC50 [4]: 2.34 µM (active) | AC50 [5]: 1.38 µM (active) | AC50 [6]: 2.16 µM (active) | AC50 [7]: 1.56 µM (active)

SMILES: COc1ccccc1NS(=O)(=O)c1cccc(C(=O)N/N=C/c2c(CO)cnc(C)c2O)c1
IC50 (H9c2): > 79 µM (inactive) | IC50 [10]: > 20 µM (inactive)

SMILES: C[C@@H]1CN([C@H](C)CO)C(=O)Cc2cc(NS(=O)(=O)c3ccc(F)cc3)ccc2O[C@@H]1CN(C)Cc1ccc(-c2ccccc2)cc1
AC50 [3]: 3.2 µM (active)

AC50 [11]: 24.3 µM (active)
SMILES: CCN(CC)CCN(C(=O)c1ccc2c(c1)CCCC2)c1nc2c(OC)cccc2s1

SMILES: C[C@@H]1CN([C@@H](C)CO)C(=O)c2cccc(NC(=O)Nc3ccc(F)cc3)c2O[C@@H]1CN(C)Cc1ccc(C(=O)Nc2ccccc2N)cc1
AC50 [3]: 3.68 µM (active)

EC50 [12]: 261 µM (active) | EC50 [13]: 4.59 µM (active) | AC50 [11]: 5.49 µM (active)
SMILES: CCn1c(C)nc2cc(N)ccc21

SMILES: C[C@@H]1CN([C@@H](C)CO)C(=O)c2cccc(NC(=O)Nc3ccccc3)c2O[C@@H]1CN(C)C(=O)Nc1ccc(F)cc1
AC50 [4]: 0.392 µM (active) | AC50 [5]: 0.35 µM (active) | AC50 [6]: 0.65 µM (active) | AC50 [7]: 0.372 µM (active)

SMILES: Cc1ccc(S(=O)(=O)Nc2ccc3c(c2)C(=O)N([C@H](C)CO)C[C@H](C)[C@@H](CN(C)C(=O)Nc2ccc(C(F)(F)F)cc2)OCCCC[C@@H](C)O3)cc1
AC50 [3]: 4.82 µM (active)

SMILES: C[C@@H]1CN([C@H](C)CO)S(=O)(=O)c2ccc(C#Cc3ccccc3F)cc2O[C@H]1CN(C)C(=O)c1ccc2c(c1)OCO2
IC50 (H9c2): > 79 µM (inactive) | AC50 [4]: 1.6 µM (active) | AC50 [5]: 1.18 µM (active) | AC50 [6]: 1.61 µM (active) | AC50 [7]: 0.925 µM (active)

SMILES: Cc1ccc(S(=O)(=O)N(C)C[C@H]2Oc3c(NC(=O)c4nc5ccccc5s4)cccc3C(=O)N([C@@H](C)CO)C[C@@H]2C)cc1
AC50 [3]: 1.09 µM (active)

AC50 [11]: 21.9 µM (active)
SMILES: CCN(CC)CCN(C(=O)c1ccc(N2C(=O)CCC2=O)cc1)c1nc2cc3c(cc2s1)OCCO3

SMILES: O=C(Cc1ccc(S(=O)(=O)N2CCOCC2)s1)N1CCN(S(=O)(=O)c2ccc(Cl)cc2)CC1
AC50 [8]: 14.1 µM (active) | AC50 [14]: 7.93 µM (active) | AC50 [15]: 7.03 µM (active) | AC50 [9]: 28.2 µM (active)

SMILES: COc1cc2c3cc1Oc1c(OC)c(OC)cc4c1[C@H](Cc1ccc(cc1)Oc1cc(ccc1O)C[C@H]3N(C)CC2)N(C)CC4 [AROMOLINE]
AC50 [11]: 9.29 µM (active)

SMILES: CC1CCN(C(=O)c2ncn3c2C(=O)N[C@@H](C)C3)CC1
AC50 [8]: 7.15 µM (active) | AC50 [14]: 9.53 µM (active) | AC50 [15]: 1.94 µM (active) | AC50 [9]: 9.91 µM (active)
